From patent US8628961B2, “Small molecule antagonists of phosphatidylinositol-3,4,5-triphosphate (PIP3) and uses thereof” (Tufts University, priority 2010, dated 2014) come the findings set out here.

Data set [1] has as its system AMPK and ACC phosphorylation, LC3-II. The data set is described as follows: Metabolic stress and autophagy markers. In kind it is cell-based, human. The text has this: Changes in cell metabolism have emerged in recent years as an important component of PI3K/PIP3/Akt signaling, contributing to the regulation of cell viability and transformation by the PI3K/Akt pathway. Datta S R et al. (1999) Genes Dev 13:2905-27; Elstrom R L et al. (2004) Cancer Res 64:3892-9. Therefore, the possibility that PIT-1 may cause dysregulation of energy homeostasis and induction of the metabolic stress in cancer cells, which may contribute to the PIT-induced cell death, was investigated. […] Hardie D G (2007) Nat Rev Mol Cell Biol 8:774-85. […] Mathew R et al. (2007) Nat Rev Cancer 7:961-7. […] It is also consistent with the established role of Akt as an inhibitor of autophagy. […] Takeuchi H et al. (2005) Cancer Res 65:3336-46.

The next data set addresses PLC-δ PH domain (Homo sapiens (Human), UniProt P51178). The data set is described as follows: PH domain translocation assay (GFP fusion). The class given is cell-based. The procedure:
Cells were transfected with the corresponding GFP-fusion vectors, serum starved overnight, and incubated with 100 μM PITs or PIT-1 is for 2 hr, followed by stimulation with 100 ng/ml PDGF or 250 ng/ml PMA for 5 min. The translocation was analyzed using fluorescent microscope and was quantitated by counting the number of cells with translocated PH domains in five random fields.

A further data set relates to cancer cells. Put plainly: Cancer cell invasion through matrigel. The class given is cell-based. The source says: Simpson K J et al. (2004) Cancer Res 64:8694-701.
The test system of a further data set is PI3K-PDK1-Akt signaling. The data set is described as follows: PI3K-PDK1-Akt signaling in growth factor-stimulated SUM159 cells. The class given is cell-based, human.
The subject of another data set is SUM159 cells. Put plainly: Actin polymerization and ruffling/lamellipodia formation after PDGF. As to conditions: SUM159, concentration-dependent. In kind it is cell-based, human. Here is the method:
In one set of experiments, the ability of PITs to inhibit actin polymerization and ruffling/lamellipodia formation was examined in SUM159 cells. Cells were serum starved and treated with PITs (25, 50 100 μM) or PIT-1 is (100 μM) for 8 hr, followed by PDGF (100 ng/ml) stimulation for 15 min. Cells were fixed and stained with TRITC-phalloidin to visualize actin fibers, followed by fluorescent microscopy analysis. The number of cells with ruffles/lamellipodia was counted in five random fields.

The target of data set [2] is R86A mutant of the PH domain (Homo sapiens (Human), UniProt P31749, R86A). Put plainly: NMR HSQC binding analysis, mutant PH domain.
Sequence of R86A mutant of the PH domain (P31749 1-123 R86A): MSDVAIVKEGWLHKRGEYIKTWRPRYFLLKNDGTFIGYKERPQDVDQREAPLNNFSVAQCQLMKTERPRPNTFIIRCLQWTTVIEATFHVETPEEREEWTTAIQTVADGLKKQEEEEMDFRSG
Another data set has as its system apoptosis. The data set is described as follows: Apoptosis features: subG1 DNA content, Western blot of caspase-3 and PARP. The class given is cell-based. The source says:
Since PI3K/PIP3/Akt signaling plays a critical role in the inhibition of apoptosis (Datta S R et al. (1999) Genes Dev 13:2905-27), the possibility that PITs induce apoptosis was examined. […] Proapoptotic Bcl-2 family members Bax and Bak are important mediators of apoptosis. Wei M C et al. (2001) Science 292:727-30. […] Non-apoptotic mechanisms of cell death may also play some additional, albeit less important, role in PIT-induced killing, as some cell death was still observed in Bax/Bak-deficient cells and in the presence of zVAD.fmk.

The target in another data set is PH123 (Homo sapiens (Human), UniProt P31749). The data set is described as follows: Lipid overlay assay of PIP3/PH123 binding.
Sequence of PH123 (P31749 1-123): as the sequence (P31749 1-123 R86A) above, with A86R counted along it
Another data set deals with eIF-1 (Homo sapiens (Human), UniProt P41567). The data set is described as follows: NMR HSQC specificity control. The class given is binding.
Sequence of eIF-1 (P41567 whole entry, species assumed, the tested form may be a part): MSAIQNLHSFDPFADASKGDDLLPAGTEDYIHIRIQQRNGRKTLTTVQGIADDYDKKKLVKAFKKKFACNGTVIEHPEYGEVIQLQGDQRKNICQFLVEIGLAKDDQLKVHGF
The next data set relates to U87MG cells. Put plainly: Cell death in U87MG cells overexpressing PH domain-deficient constitutively active Akt. In kind it is cell-based, human. The procedure: To further confirm the mode of action of PIT-1 in the cells is directly related to the inhibition of PIP3/Akt PH domain interaction, induction of cell death in cells overexpressing constitutively active Akt lacking PH domain, but containing a membrane-targeting myristoylation signal, was tested. […] This is not unexpected, considering that another PIT-1 target, PDK1, regulates cell survival through both Akt-dependent and Akt-independent pathways.

Data set [3] relates to Bax/Bak double knockout cells. The data set is described as follows: Cell killing in Bax/Bak double knockout versus wild-type cells. In kind it is cell-based, mouse. The procedure:
Human and mouse cancer cell lines (U87MG, SUM159, A549, MDA-MB-231, 4T1, B16-F10) and human umbilical vein endothelial cells (HUVEC) were purchased from the American Type Culture Collection (Rockville, Md., USA). Mouse adult lung fibroblasts (Akt-deficient and Akt1-expressing) were a generous gift of Dr. Philip Tsichlis (Tufts University). Maroulakou I et al. (2007) Cancer Res 67:167-77. Bax/Bak double knockout mouse embryonic fibroblasts (Wei M C et al. (2001) Science 292:727-30) and matched wild-type cells were a generous gift of Dr. Stanley Korsmeyer (Dana-Farber Cancer Center). B16-F10, U87MG, 4T1, A549, MDA-MB-231 and fibroblast cells were cultured in DMEM medium with 10% fetal bovine serum (FBS). SUM159 was maintained in Ham's F-12 medium with 5% FBS, 5 μg/ml insulin, and 1 μg/ml hydrocortisone. HUVEC cells were cultured in M199 medium with 20% FBS, 20 μg/ml ECGS, and 50 μg/ml heparin. All media were supplemented with 100 units/ml penicillin, 100 μg/ml streptomycin, and 2 mM glutamine. All cells were cultured in a humidified atmosphere of 95% air and 5% CO2 at 37° C.
Since PI3K/PIP3/Akt signaling plays a critical role in the inhibition of apoptosis (Datta S R et al. (1999) Genes Dev 13:2905-27), the possibility that PITs induce apoptosis was examined. […] Proapoptotic Bcl-2 family members Bax and Bak are important mediators of apoptosis. Wei M C et al. (2001) Science 292:727-30. […]

Data set [4] is described as follows: Cell death under glucose/glutamine deprivation. The class given is cell-based.
For another data set, the target named is Bcl-xL (Homo sapiens (Human), UniProt Q07817). Put plainly: NMR HSQC specificity control. In kind it is binding.
Sequence of Bcl-xL (Q07817 whole entry, species assumed, the tested form may be a part): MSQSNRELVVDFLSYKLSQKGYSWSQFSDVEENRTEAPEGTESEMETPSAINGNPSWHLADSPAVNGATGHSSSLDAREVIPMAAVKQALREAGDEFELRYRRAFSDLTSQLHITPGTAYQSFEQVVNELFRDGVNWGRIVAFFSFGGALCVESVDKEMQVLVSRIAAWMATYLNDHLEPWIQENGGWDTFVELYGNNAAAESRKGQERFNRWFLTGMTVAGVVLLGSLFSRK
Another data set deals with VAV2 (Homo sapiens (Human), UniProt P52735). The data set is described as follows: Plasma membrane translocation assay (GFP fusion). The class given is cell-based. As to conditions: PDGF stimulation. The procedure:
(§1) To begin characterizing cellular activity of PITs, a PH domain translocation assay was performed, measuring PIP3-induced association of GFP-fused PH domains with the plasma membrane. This method provides useful means for monitoring status of the PH domain/PIP3 binding in the intact cells. Varnai P et al. (1999) J Biol Chem 274:10983-9. Several PH-domain-containing proteins, which are known to bind PIP3 specifically and efficiently, were examined. […] Oikawa T et al. (2004) Nat Cell Biol 6:420-6.

For a further data set, the target named is WAVE2 (Homo sapiens (Human), UniProt Q9Y6W5). Put plainly: Plasma membrane translocation assay (GFP fusion). In kind it is cell-based. Here is the method:
as §1

Sequence of VAV2 (P52735 whole entry, species assumed, the tested form may be a part): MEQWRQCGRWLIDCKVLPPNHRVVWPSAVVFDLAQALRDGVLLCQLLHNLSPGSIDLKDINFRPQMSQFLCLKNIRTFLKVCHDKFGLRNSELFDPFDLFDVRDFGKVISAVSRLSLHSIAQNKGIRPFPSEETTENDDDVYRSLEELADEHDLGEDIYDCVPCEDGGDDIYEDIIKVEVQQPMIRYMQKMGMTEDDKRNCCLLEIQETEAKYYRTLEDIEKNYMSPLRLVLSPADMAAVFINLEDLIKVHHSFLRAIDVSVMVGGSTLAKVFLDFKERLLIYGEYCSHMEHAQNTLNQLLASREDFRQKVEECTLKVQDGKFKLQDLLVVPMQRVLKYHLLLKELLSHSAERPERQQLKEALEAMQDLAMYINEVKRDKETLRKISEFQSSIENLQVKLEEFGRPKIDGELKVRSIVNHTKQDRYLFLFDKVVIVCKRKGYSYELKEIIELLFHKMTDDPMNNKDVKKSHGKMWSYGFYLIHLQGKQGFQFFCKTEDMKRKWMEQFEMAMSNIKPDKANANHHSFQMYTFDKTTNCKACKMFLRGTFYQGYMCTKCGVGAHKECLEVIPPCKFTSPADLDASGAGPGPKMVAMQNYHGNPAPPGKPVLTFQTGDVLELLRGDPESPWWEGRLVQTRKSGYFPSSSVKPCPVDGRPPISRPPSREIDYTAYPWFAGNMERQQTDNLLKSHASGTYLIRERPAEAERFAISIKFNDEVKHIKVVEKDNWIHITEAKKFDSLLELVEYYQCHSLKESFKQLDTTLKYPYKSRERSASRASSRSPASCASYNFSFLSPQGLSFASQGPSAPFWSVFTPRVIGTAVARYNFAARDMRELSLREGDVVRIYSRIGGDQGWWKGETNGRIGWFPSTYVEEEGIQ
Sequence of WAVE2 (Q9Y6W5 whole entry, species assumed, the tested form may be a part): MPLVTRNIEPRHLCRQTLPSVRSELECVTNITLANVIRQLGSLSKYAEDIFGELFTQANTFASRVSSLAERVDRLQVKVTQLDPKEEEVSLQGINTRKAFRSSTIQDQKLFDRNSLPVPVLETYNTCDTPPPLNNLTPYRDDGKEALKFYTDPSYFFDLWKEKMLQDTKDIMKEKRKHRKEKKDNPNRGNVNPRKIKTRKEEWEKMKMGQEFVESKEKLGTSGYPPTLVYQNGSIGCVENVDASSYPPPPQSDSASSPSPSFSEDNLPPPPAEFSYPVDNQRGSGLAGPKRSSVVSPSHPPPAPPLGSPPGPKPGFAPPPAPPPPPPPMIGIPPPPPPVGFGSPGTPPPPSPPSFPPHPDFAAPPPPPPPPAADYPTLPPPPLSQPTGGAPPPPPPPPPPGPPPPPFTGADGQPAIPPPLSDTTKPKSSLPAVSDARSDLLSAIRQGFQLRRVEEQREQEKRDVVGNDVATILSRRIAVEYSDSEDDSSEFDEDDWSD
Sequence of PLC-δ PH domain (P51178 21-130): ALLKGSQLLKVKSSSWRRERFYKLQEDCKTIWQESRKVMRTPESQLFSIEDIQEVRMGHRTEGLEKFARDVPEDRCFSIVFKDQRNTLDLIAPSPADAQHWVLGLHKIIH

For the molecule `O=C(NC(=S)Nc1cc([N+](=O)[O-])cc(Cl)c1O)c1ccccc1` [PIT-1], in [1], the “phosphorylation of ACC” value is listed as “Increased phosphorylation” and the “phosphorylation of AMPK” value was “significant increase in the phosphorylation”. The “expression of autophagic marker LC3-II” value in [1] (U87MG cells) is given as “prominently increased the expression”. Moreover, the “cellular localization of PLC-δ PH domain” value on PLC-δ PH domain is “no inhibitory effect”. Besides, in the data set on cancer cells, the “cancer cell invasion through matrigel” value was “efficiently suppressed cancer cell invasion through matrigel”. Also, the “cytotoxic effects at concentrations used in migration and invasion experiments” value with cancer cells (P>0.05) was “no significant cytotoxic effects”. Further, in the data set on cancer cells (reversible), the “acquisition of invasive phenotype by SUM-159 cells” value is “blocked acquisition of the invasive phenotype”. In addition, the “PI3K-PDK1-Akt signaling in SUM159 cells” value in the data set on PI3K-PDK1-Akt signaling is listed as “significantly suppressed PI3K-PDK1-Akt signaling”. Also, the PDGF-induced membrane ruffling entry in the data set on SUM159 cells is recorded as “efficiently inhibited”. In data set [2], the “effect on R86A mutant PH domain (HSQC)” value is on record as “no effect”. In addition, in the data set on apoptosis (P<0.01), the “subG1 DNA content in cells” value is on record as “significant increase in subG1 DNA content”. For the same molecule, the “cleavage/activation of caspase-3 and processing of PARP” value in the data set with apoptosis (Western blot) is recorded as “induced the cleavage/activation”. In addition, the “inhibitory effect on PIP3/PH123 binding” value on PH123 is on record as “concentration-dependent inhibitory effect”. Also, the “changes in HSQC spectra of eIF-1” value at eIF-1 is recorded as “did not elicit any changes”. Also, the “effect of overexpressed PH domain-deficient Akt on killing of U87MG cells” value in the data set on U87MG cells is “significantly protected U87MG cells from PIT-1 killing”. The “killing of Bax/Bak double knockout compared with wild-type cells” value in [3] was “reduced in Bax/Bak double knockout cells”. For the same molecule, the “cell death in combination with glucose/glutamine deprivation” value in data set [4] was “dramatic induction of cell death”. Further, the “changes in HSQC spectra of Bcl-xL” value on Bcl-xL was “did not elicit any changes”. Moreover, the “plasma membrane translocation of VAV2” value at VAV2 is on record as “significantly inhibited the translocation”. The “plasma membrane translocation of WAVE2” value at WAVE2 was “suppressed the plasma membrane translocation”.
